Results taken from patent US10392347B2, “2,4-dihydroxy-nicotinamides as APJ agonists” (BRISTOL-MYERS SQUIBB COMPANY, priority 2015, dated 2019).

Each compound was assayed against T1, human APJ receptor (Homo sapiens, UniProt P35414) (assay: Intracellular cAMP accumulation assay (APJ hcAMP, HTRF)). Conditions: HEK293 cells stably expressing human APJ; read-out: Human APJ cAMP EC50 Potency range.
T1 construct: expressed in transfected cells
T1 sequence (P35414 1-380): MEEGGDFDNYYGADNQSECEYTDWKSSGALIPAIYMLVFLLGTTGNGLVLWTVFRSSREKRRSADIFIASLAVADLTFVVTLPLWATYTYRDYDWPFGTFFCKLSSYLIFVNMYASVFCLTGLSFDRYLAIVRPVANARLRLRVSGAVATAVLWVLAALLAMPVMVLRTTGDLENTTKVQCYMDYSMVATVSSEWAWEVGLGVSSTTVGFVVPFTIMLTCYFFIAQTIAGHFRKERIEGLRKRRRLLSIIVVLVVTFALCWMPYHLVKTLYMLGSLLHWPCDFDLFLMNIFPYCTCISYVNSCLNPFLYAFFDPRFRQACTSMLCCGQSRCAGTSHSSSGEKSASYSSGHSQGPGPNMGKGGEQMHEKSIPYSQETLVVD
Type: cell-based
Experimental: Intracellular cAMP Accumulation Assay
HEK293 cells stably expressing human APJ receptor were used to assess the activity of compounds. Cultured cells were detached and resuspended in the cAMP Homogeneous Time-Resolved Fluorescence (HTRF) assay buffer (Cisbio cat; #62AM4PEJ). […] Serial dilutions of a compound together with assay buffer containing […] and 2 μM forskolin were added to each well containing 5,000 cells and incubated for 30 minutes at room temperature. Subsequently, cAMP D2 reagent was added in the lysis buffer followed by the EuK antibody (Cisbio; cat #62AM4PEJ) and incubated for 60 min. The fluorescence emission ratio was measured using fluorometer. The intracellular cAMP concentrations (compound-stimulated inhibition of forskolin-mediated cAMP production) were calculated by extrapolation from a standard curve using known cAMP concentrations. The EC50 values were obtained by fitting the data to a sigmoidal concentration-response curve with variable slope.
The EC50 value of each compound is presented at the end of the example description.
The biological activity of the exemplified compounds of this invention determined by the assay described above is shown at the end of each example.

Q: Which EC50 does the source give for CCOCc1nc(O)c(C(=O)N2CC[C@H](c3ccccc3)C2)c(O)c1-c1c(OC)cc(F)cc1OC [Example 70] here?
A: 10 to 100 nM

Same assay, conditions: Table 1; HEK293 cells stably expressing human APJ, forskolin-stimulated cAMP; read-out: APJ cAMP EC50

Q: How did the EC50 turn out when CCCCc1nc(O)c(C(=O)N2CCC(c3ccccc3)CC2)c(O)c1-c1c(OC)cccc1OC [Example 62, 6-butyl-5-(2,6-dimethoxyphenyl)-3-(4-phenylpiperidine-1-carbonyl)pyridine-2,4-diol] was run?
A: 10 to 100 nM

Q: CCCCc1nc(O)c(C(=O)N2CCN(C3CCCCC3)CC2)c(O)c1-c1c(OC)cccc1OC [Example 63, 6-butyl-3-(4-cyclohexylpiperazine-1-carbonyl)-5-(2,6-dimethoxyphenyl)pyridine-2,4-diol] was tested. Which EC50 did it give?
A: 10 to 100 nM

Q: For CCCCc1nc(O)c(C(=O)N2CCC3(CC2)OCc2ccccc23)c(O)c1-c1c(OC)cccc1OC [Example 64, 6-butyl-5-(2,6-dimethoxyphenyl)-3-({3H-spiro[2-benzofuran-1,4′-piperidine]-1′-yl}carbonyl)pyridine-2,4-diol], which EC50 is on record?
A: 10 to 100 nM

Q: How did the EC50 turn out when CCCCc1nc(O)c(C(=O)N2CCC(c3noc4cc(F)ccc34)CC2)c(O)c1-c1c(OC)cccc1OC [Example 65, 6-butyl-5-(2,6-dimethoxyphenyl)-3-[4-(6-fluoro-1,2-benzoxazol-3-yl)piperidine-1-carbonyl]pyridine-2,4-diol] was run?
A: 10 to 100 nM

Q: Which EC50 does the source give for CCCCc1nc(O)c(C(=O)N2CCC3(CC2)CC(=O)Nc2ccccc23)c(O)c1-c1c(OC)cccc1OC [Example 66, 1-[6-butyl-5-(2,6-dimethoxyphenyl)-2,4-dihydroxypyridine-3-carbonyl]-2′,3′-dihydro-1′H-spiro[piperidine-4,4′-quinoline]-2′-one] here?
A: 10 to 100 nM

Q: How did the EC50 turn out when CCCCc1nc(O)c(C(=O)N2CCC(c3cc(-c4ccccc4)[nH]n3)CC2)c(O)c1-c1c(OC)cccc1OC [Example 67, 6-butyl-5-(2,6-dimethoxyphenyl)-3-[4-(5-phenyl-1H-pyrazol-3-yl)piperidine-1-carbonyl]pyridine-2,4-diol] was run?
A: 100 to 300 nM

Q: CCCCc1nc(O)c(C(=O)N2CCN(c3ccc(Cl)cc3)CC2)c(O)c1-c1c(OC)cccc1OC [Example 68, 6-butyl-3-[4-(4-chlorophenyl)piperazine-1-carbonyl]-5-(2,6-dimethoxyphenyl)pyridine-2,4-diol] was tested. Which EC50 did it give?
A: 10 to 100 nM

Q: For CCCCc1nc(O)c(C(=O)N2CCC(c3nc(-c4cccnc4)no3)CC2)c(O)c1-c1c(OC)cccc1OC [Example 69, 6-butyl-5-(2,6-dimethoxyphenyl)-3-{4-[3-(pyridin-3-yl)-1,2,4-oxadiazol-5-yl]piperidine-1-carbonyl}pyridine-2,4-idiol], which EC50 is on record?
A: 10 to 100 nM

Same assay, conditions: Table 3; HEK293 cells stably expressing human APJ, forskolin-stimulated cAMP; read-out: APJ cAMP EC50

Q: CCCCc1nc(O)c(C(=O)N2CCC(c3ccc(Cl)cn3)C2)c(O)c1-c1c(OC)cccc1OC (centres unmarked) [Example 75, 6-butyl-3-[3-(5-chloropyridin-2-yl)pyrrolidine-1-carbonyl]-5-(2,6-dimethoxyphenyl)pyridine-2,4-diol] was tested. Which EC50 did it give?
A: 0.01 to 10 nM

Q: Which EC50 does the source give for CCOCc1nc(O)c(C(=O)N2CCC(c3ccc(Cl)cn3)C2)c(O)c1-c1c(OC)cccc1OC (centres unmarked) [Example 76, 3-[3-(5-chloropyridin-2-yl)pyrrolidine-1-carbonyl]-5-(2,6-dimethoxyphenyl)-6-(ethoxymethyl)pyridine-2,4-diol] here?
A: 0.01 to 10 nM

Q: With CCOCc1nc(O)c(C(=O)N2CCC(c3ccc(Cl)cn3)C2)c(O)c1-c1c(OC)cccc1OC (centres unmarked) [Example 77, 3-[3-(5-chloropyridin-2-yl)pyrrolidine-1-carbonyl]-5-(2,6-dimethoxyphenyl)-6-(ethoxymethyl)pyridine-2,4-diol] as the compound, how does the EC50 read?
A: 0.01 to 10 nM

Q: For CCCCc1nc(O)c(C(=O)N2CCC(c3ncccc3F)C2)c(O)c1-c1c(OC)cccc1OC (centres unmarked) [Example 78, 6-butyl-5-(2,6-dimethoxyphenyl)-3-[3-(3-fluoropyridin-2-yl)pyrrolidine-1-carbonyl]pyridine-2,4-diol], which EC50 is on record?
A: 0.01 to 10 nM

Q: With CCCCc1nc(O)c(C(=O)N2CCC(c3ccc(F)cn3)C2)c(O)c1-c1c(OC)cccc1OC (centres unmarked) [Example 79, 6-butyl-5-(2,6-dimethoxyphenyl)-3-[3-(5-fluoropyridin-2-yl)pyrrolidine-1-carbonyl]pyridine-2,4-diol] as the compound, how does the EC50 read?
A: 0.01 to 10 nM

Q: With CCCCc1nc(O)c(C(=O)N2CCC(c3ccc(F)cn3)C2)c(O)c1-c1c(OC)cccc1OC (centres unmarked) [Example 80, 6-butyl-5-(2,6-dimethoxyphenyl)-3-[3-(5-fluoropyridin-2-yl)pyrrolidine-1-carbonyl]pyridine-2,4-diol] as the compound, how does the EC50 read?
A: 0.01 to 10 nM

Q: Which EC50 does the source give for CCCCc1nc(O)c(C(=O)N2CCC(c3ncccc3F)C2)c(O)c1-c1c(OC)cccc1OC (centres unmarked) [Example 81, 6-butyl-5-(2,6-dimethoxyphenyl)-3-[3-(3-fluoropyridin-2-yl)pyrrolidine-1-carbonyl]pyridine-2,4-diol] here?
A: 0.01 to 10 nM

Q: For CCCCc1nc(O)c(C(=O)N2CCC(c3ncc(F)cc3F)C2)c(O)c1-c1c(OC)cccc1OC (centres unmarked) [Example 82, 6-butyl-3-[3-(3,5-difluoropyridin-2-yl)pyrrolidine-1-carbonyl]-5-(2,6-dimethoxyphenyl)pyridine-2,4-diol], which EC50 is on record?
A: 0.01 to 10 nM

Q: Which EC50 does the source give for CCCCc1nc(O)c(C(=O)N2CCC(c3ncc(F)cc3F)C2)c(O)c1-c1c(OC)cccc1OC (centres unmarked) [Example 83, 6-butyl-3-[3-(3,5-difluoropyridin-2-yl)pyrrolidine-1-carbonyl]-5-(2,6-dimethoxyphenyl)pyridine-2,4-diol] here?
A: 0.01 to 10 nM

Q: Which EC50 does the source give for CCOCc1nc(O)c(C(=O)N2CCC(c3ncc(F)cc3F)C2)c(O)c1-c1c(OC)cccc1OC (centres unmarked) [Example 84, 3-[3-(3,5-difluoropyridin-2-yl)pyrrolidine-1-carbonyl]-5-(2,6-dimethoxyphenyl)-6-(ethoxymethyl)pyridine-2,4-diol] here?
A: 0.01 to 10 nM

Q: For CCOCc1nc(O)c(C(=O)N2CCC(c3ncc(F)cc3F)C2)c(O)c1-c1c(OC)cccc1OC (centres unmarked) [Example 85, 3-[3-(3,5-difluoropyridin-2-yl)pyrrolidine-1-carbonyl]-5-(2,6-dimethoxyphenyl)-6-(ethoxymethyl)pyridine-2,4-diol], which EC50 is on record?
A: 0.01 to 10 nM

Q: How did the EC50 turn out when COc1cccc(OC)c1-c1c(-c2ccc(F)cc2)nc(O)c(C(=O)N2CCC(c3ccccc3F)C2)c1O (centres unmarked) [Example 86, (5-(2,6-dimethoxyphenyl)-6-(4-fluorophenyl)-2,4-dihydroxypyridin-3-yl)(3-(2-fluorophenyl)pyrrolidin-1-yl)methanone] was run?
A: 0.01 to 10 nM

Q: With COc1cccc(OC)c1-c1c(-c2ccc(F)cc2)nc(O)c(C(=O)N2CCC(c3ncc(F)cc3F)C2)c1O (centres unmarked) [Example 87, (3-(3,5-difluoropyridin-2-yl)pyrrolidin-1-yl)(5-(2,6-dimethoxyphenyl)-6-(4-fluorophenyl)-2,4-dihydroxypyridin-3-yl)methanone] as the compound, how does the EC50 read?
A: 0.01 to 10 nM

Same assay, conditions: Table 4; HEK293 cells stably expressing human APJ, forskolin-stimulated cAMP; read-out: Human cAMP EC50

Q: How did the EC50 turn out when COCCc1nc(O)c(C(=O)N2CCN(Cc3cccc(F)c3)CC2)c(O)c1-c1c(OC)cccc1OC [Example 88, 5-(2,6-dimethoxyphenyl)-3-{4-[(3-fluorophenyl)methyl]piperazine-1-carbonyl}-6-(2-methoxyethyl)pyridine-2,4-diol] was run?
A: 100 to 300 nM

Q: Which EC50 does the source give for CCOCc1nc(O)c(C(=O)N2CCN(Cc3ccccc3F)CC2)c(O)c1-c1c(OC)cccc1OC [Example 89, 5-(2,6-dimethoxyphenyl)-6-(ethoxymethyl)-3-{4-[(2-fluorophenyl)methyl]piperazine-1-carbonyl}pyridine-2,4-diol] here?
A: 0.01 to 10 nM

Q: CCOCc1nc(O)c(C(=O)N2CCN(Cc3cccc(F)c3)CC2)c(O)c1-c1c(OC)cccc1OC [Example 90, 5-(2,6-dimethoxyphenyl)-6-(ethoxymethyl)-3-{4-[(3-fluorophenyl)methyl]piperazine-1-carbonyl}pyridine-2,4-diol] was tested. Which EC50 did it give?
A: 10 to 100 nM

Q: How did the EC50 turn out when CCOCc1nc(O)c(C(=O)N2CCN(Cc3cccc(F)c3)CC2)c(O)c1-c1ccccc1OC [Example 91, 6-(ethoxymethyl)-3-{4-[(3-fluorophenyl)methyl]piperazine-1-carbonyl}-5-(2-methoxyphenyl)pyridine-2,4-diol] was run?
A: 10 to 100 nM

Q: How did the EC50 turn out when CCCCc1nc(O)c(C(=O)N2CCC(Oc3ccccc3)CC2)c(O)c1-c1c(OC)cccc1OC [Example 92, 6-butyl-5-(2,6-dimethoxyphenyl)-3-(4-phenoxypiperidine-1-carbonyl)pyridine-2,4-diol] was run?
A: 0.01 to 10 nM

Q: CCCCc1nc(O)c(C(=O)N2CCN(Cc3ccc(Cl)cc3Cl)CC2)c(O)c1-c1c(OC)cccc1OC [Example 93, 6-butyl-3-{4-[(2,4-dichlorophenyl)methyl]piperazine-1-carbonyl}-5-(2,6-dimethoxyphenyl)pyridine-2,4-diol] was tested. Which EC50 did it give?
A: 0.01 to 10 nM

Q: CCCCc1nc(O)c(C(=O)N2CCN(Cc3cccc(Cl)c3Cl)CC2)c(O)c1-c1c(OC)cccc1OC [Example 94, 6-butyl-3-{4-[(2,3-dichlorophenyl)methyl]piperazine-1-carbonyl}-5-(2,6-dimethoxyphenyl)pyridine-2,4-diol] was tested. Which EC50 did it give?
A: 0.01 to 10 nM
